Measured values as given in patent publication US6894060B2, “Method for the treatment of dermal lesions caused by envenomation” (3M Innovative Properties Company, priority 2000, dated 2005).

Test system: Loxosceles reclusa envenomation (spider bite dermal lesions)
Assay: Treatment of Loxosceles reclusa envenomation with imiquimod 5% cream (consecutive clinical cases)
Format: in vivo, human
Protocol: A consecutive series of 7 bites on 5 patients were treated with imiquimod 5% cream (available under the tradename ALDARA from 3M Pharmaceuticals, St. Paul, Minn., USA) applied by the clinic staff, three times per week (typically Monday, Wednesday and Friday) for two weeks. Sufficient cream was used to cover the area of erythema, rubbing the cream gently until it “vanished” as per labeled instructions. In addition, a single intramuscular dose of ceftriaxone 1 gm was given together with oral dicloxicillin, 500 mg bid for 10 days. Patients were re-examined by a physician at 7, 14 and 28 days following initiation of therapy.

`CC(C)Cn1cnc2c(N)nc3ccccc3c21` [imiquimod, 1-(2-methylpropyl)-1H-imidazo[4,5-c]quinolin-4-amine] was tested, and the “improvement in induration and erythema by day 7” value (7 bites in 5 patients) was “Marked improvement”, the “resolution of induration and erythema by day 14” value (7 bites in 5 patients) was “full resolution in all but one case” and the cases with necrosis (7 consecutive cases, versus historical rate 7/12 (0.583): binomial p=0.002, Chi-square p=0.01) was 0 out of 7. The “residual scarring or pigmentation changes” value (day 28 follow-up visit) was “No residual scarring or pigmentation changes”, the development of necrosis (imiquimod treated cases, 7 bites in 5 patients) was “Necrosis did not develop in any” and the “erythema, 14 Day Follow-up” value (patient five, right calf bite) was “present”. For the same molecule, the “ulcer status, 14 Day Follow-up” value (patient five, right calf bite) was “Ulcer healed”, the “erythema, 7 Day Follow-up” value (patient five, right calf bite, 1.2 cm erythema at presentation) was “No erythema” and the “ulcer, 7 Day Follow-up” value (patient five, right calf bite, 1.8 cm central core at presentation) was 0.75 cm ulcer. For the same molecule, the “erythema resolved by (day)” value (patient five, right calf bite, erythema present at day 14) was “d28)”, the “pain, 7 Day Follow-up” value (patient five, right calf bite, painful at presentation) was “Decreased pain” and the “reappearance of erythema, presumed to be secondary to imiquimod” value (patient five, erythema cleared at the day 7 visit) was “developed again by day 14”. The “lesion status, 14 Day Follow-up” value (patient four, right calf bite) was “Completely”, the “induration, 7 Day Follow-up” value (patient four, right calf bite, 1.5 cm induration at presentation, cream three times per week for two weeks) was 0.5 cm and the “erythema, 7 Day Follow-up” value (patient four, right calf bite, 9 cm erythema at presentation) was “No erythema”. The “pain or tenderness, 7 Day Follow-up” value (patient four, right calf bite, painful at presentation) was “No pain or”, the “lesion status, 14 Day Follow-up” value (patient one, right calf bite) was “Completely” and the “firm induration, 7 Day Follow-up” value (patient one, right calf bite, 1.3 cm induration at presentation) was 1.25 cm firm. The “induration (second entry of the cell), 7 Day Follow-up” value (patient one, right calf bite, 10 cm erythema at presentation) was 5 cm, the “tenderness, 7 Day Follow-up” value (patient one, right calf bite, very painful at presentation) was “Non-tender” and the “time from bite to resolution” value (patient three, first bite) was 9 days. The “lesion status, 7 Day Follow-up” value (patient three, left buttock bite, 1.0 cm induration, erythema, painful at presentation) was “Completely”, the “lesion status, 14 Day Follow-up” value (patient three, right thigh bite) was “Completely” and the “central core, 7 Day Follow-up” value (patient three, right thigh bite, 1.5 cm induration at presentation) was 2.5 cm. For the same molecule, the “erythema, 7 Day Follow-up” value (patient three, right thigh bite, 7.5 × 11 cm erythema at presentation) was “No erythema”, the “pain or tenderness, 7 Day Follow-up” value (patient three, right thigh bite, tender at presentation) was “No pain or” and the “lesion status, 14 Day Follow-up” value (patient two, left thigh bite) was “Completely”. For the same molecule, the “central core, 7 Day Follow-up” value (patient two, left thigh bite, 1.0 cm central core at presentation) was 0.5 cm, the “erythema, 7 Day Follow-up” value (patient two, left thigh bite, 6.0 cm erythema at presentation) was 2.0 cm and the “lesion status, 14 Day Follow-up” value (patient two, right breast bite) was “Completely”. For the same molecule, the “central core, 7 Day Follow-up” value (patient two, right breast bite, 1.2 cm central core at presentation) was 1.0 cm, the “erythema, 7 Day Follow-up” value (patient two, right breast bite, 3.0 cm erythema at presentation) was “No erythema” and the “time to pain relief following the first dose” value (reported by all patients, 7 bites in 5 patients) was 1 to 2 days.
